Laboratory results from US8642087B1, “Compounds and methods for reducing oxidative stress” (University of Kentucky Research Foundation, priority 2010, dated 2014).
≈ marks a conversion by molar mass, not a printed value.

What was measured:
HUVECs [1] = experiment: H2O2-induced oxidative stress injury to HUVECs, cell viability by MTT assay; assay type: cell-based, human; settings: for cell viability compared to untreated control cells: pre-treatment 2 hrs, then 500 μM H2O2, 24 hrs
Description: To assess the effect of H2O2-induced oxidative stress injury to HUVECs in the presence of PAβAE degradation products, cell viability was measured and used as a marker of the injury to the cells subsequent to exposure to the degradation products of PAβAE and H2O2. […] Cells were exposed to antioxidants at different concentrations and a final H2O2 concentration of 500 μM. 24 hrs later, cell viability was measured using MTT assay as described above.

HUVECs [2] = experiment: HNE-induced oxidative stress injury to HUVEC monolayer, transendothelial electrical resistance (TEER); assay type: cell-based, human; settings: 20 hours; degradation products 100 μg/mL alone; HNE 30 μM alone
Description: To assess the effect of 4-hydroxy-2-trans-nonenal (HNE)-induced oxidative stress injury to HUVECs in the presence of PAβAE degradation products, transendothelial electrical resistance (TEER) values were measured and used to monitor the permeability and injury of the cells subsequent to exposure to the degradation products of PAβAE and FINE. Briefly, HUVECs were seeded into 24 well plate Transwell inserts (Corning Costar Transwell Plates). Wells were rinsed with HBSS and media replaced every other day. TEER values (EVOM II reader, World Precision Instruments) were monitored every day until resistance stabilization after approximately 7 days. HUVECs were treated with degradation products of PAβAE, including 10% quercetin multiacrylate (QMA) and 10% curcumin multiacrylate (CMA), at a concentration of 100 μg/mL in the cell media for 1 hour. Following prophylactic incubation, and without removing PABAE degradation products, FINE was added to a final concentration 30 μM to induce oxidative injury. TEER was measured before cells were seeded, immediately before addition PABAE degradation products, and 20 hours following FINE incubation, which is consistent with maximum FINE induced injury. Change in TEER was calculated as shown below in Eq. 4. Change in TEER=(Ω20 hr−ΩTranswell insert)/(Ω0 hr−ΩTranswell insert) (4)

[3] = tested on: human umbilical vein endothelial cells (HUVECs); settings: 24 h
Description: (§1) To further examine the properties of the PAβAE hydrogels and their ability to be used as a polymer that is capable of controllably releasing an antioxidant molecule, the cytotoxicity of PAβAE degradation products was measured. In this analysis, human umbilical vein endothelial cells (HUVECs) were first purchased from Lonza (Allendale, N.J.) and cultured in EGM-2 media with 2% fetal bovine serum at 37° C. in a humidified atmosphere of 5% CO2, with HUVECs in passages 3 to 5 then being used. To assess the cytotoxicity of the degradation products, the HUVECs were then treated with degradation products of the PAβAEs at different concentrations and a MTT assay was used to measure cell viability after treating cells with the different concentrations of PAβAE degradation products. Briefly, HUVECs were seeded onto a 96-well plate at a cell density of 35,000 cells/cm^2, and, 24 hrs later, cell media was replaced with treatment solutions. 24 hrs post treatment, treatment solution was removed, cells were washed twice in PBS, and 200 μL of 0.5 mg/ml MTT solution in cell media was added to each well. The 96-well plate was then incubated at 37° C. for 12 hrs and the cell media was gently removed from the wells. 100 μL of DMSO was added to each well to dissolve the formazan product. The absorbance intensity was recorded, at 570 nm for formazan and at 690 for background, using a Cary-50 Bio UV-Visible spectrophotometer equipped with a Cary 50 MPR microplate reader (Varian, Santa Clara, Calif.).
(§2) PAβAE degradation products were then freeze dried and dissolved in DMSO at a concentration of 100 mg/ml. These concentrated DMSO solutions were then used to prepare fresh dilute solutions of PAβAE degradation products in cell media. Cells were treated with these PAβAE solutions for their cytotoxicity and their effect on cellular oxidative stress levels. To prepare quercetin and curcumin solutions, antioxidants were dissolved in DMSO at a concentration of 10 mg/ml and diluted in cell media.

HUVECs [4] = settings: literature, cited from earlier work
in vitro = settings: human
Description: as §1, §2

[5] = tested on: human normal liver cells L-02; settings: literature; cited from earlier work

OO [H2O2, hydrogen peroxide]
viability at 500 µM (HUVECs [1]; Homo sapiens, HUVEC, 500 μM H2O2 only, 24 hrs, read-out: cell viability compared to untreated control cells): 72.9%

CCCCCC(O)/C=C/C=O (stereo not drawn) [HNE, 4-hydroxy-2-trans-nonenal]
Change in TEER compared to the TEER measurement at 0 hours (HUVECs [2]): 75±2

COc1cc(/C=C/C(=O)CC(=O)/C=C/c2ccc(O)c(OC)c2)ccc1O [curcumin]
cell viability compared to untreated control cells (HUVECs [1]): 57.7 ± 1.6
cell death ([3]; 5 μg/ml): 40%
previously reported IC50 value for HUVECs (HUVECs [4]): 10.8 µg/mL
IC50 at 24 h (in vitro): 6.8 µg/mL (≈ 18.5 µM)

O=c1c(O)c(-c2ccc(O)c(O)c2)oc2cc(O)cc(O)c12 [quercetin, Quercetin]
cell viability compared to untreated control cells (HUVECs [1]): 101.13 ± 3.8
cytotoxicity (in words) [3]: toxicity to HUVECs was note observed up to a concentration of 100 μg/ml
previously reported IC50 value for HUVECs (HUVECs [4]): 18.4 µg/mL
IC50 (HUVECs [4]; read-out: previously reported IC50 value for HUVECs): 61 µM
IC50 [5]: 113 µM
